Data as given in US20100279937A1, “Method of Inhibiting Angiogenesis, Tumorigenesis and Cathepsin Activity” (priority 2006, published 2010).

How the values were obtained:
U87MG cells = assay: U87MG growth in semi-solid (soft) agar; format: cell-based, human; conditions: 10 μM CA074-ME; Alamar Blue
Experimental: […] Approximately 15,000 cells±treatment were resuspended in 150 μl medium containing 0.3% agar, and seeded onto a well of a 24-well plate previously layered with 250 μl 0.6% agar. The solidified cell layer was covered with 50 μl DME±treatment which was replaced every three days over a 21 day period. Phase contrast images (6 fields/well) were captured using a digital video camera (Olympus U-CMT) and analyzed with Northern Eclipse v.5.0 software. Color images were transformed to grey scale, thresholded, and then converted to binary images. Number and area of colonies per field were calculated. In order to measure cell viability, at the end of the experiment, 40 μl alamar blue was added to each well and fluorescence readings were performed every 10 min for a period of 180 min. Experiments were repeated 2-3 times in triplicates.

cathepsin B = molecular target: T1, cathepsin B (Homo sapiens, UniProt P07858); assay: Secreted cathepsin B activity in U87MG conditioned media; format: biochemical; conditions: 10 μM CA074-ME; overnight incubation
T1 construct: Levels of cathepsin B activity were also measured in U87MG CM alone or pre-incubated; endogenous in cells; host or cells: U87MG (ATCC), 3-day serum-free conditioned medium
Experimental: The human glioma cell line U87MG was established from surgically removed type III glioma/glioblastoma and obtained from ATCC. Cells (5×10^4 cells/ml) were plated in poly-L-lysine pre-coated dishes and grown at 37° C. in D-MEM (DME) supplemented with 100 U/ml penicillin, 100 μg/ml streptomycin and 10% heat-inactivated fetal bovine serum (FBS) (HyClone, Logan, Utah) in humidified atmosphere of 5% CO2/95% air until reached 80% confluence. Then, media were removed and the cells incubated for 3 days in serum-free DME to obtain conditioned media (CM). Conditioned media were collected and filtered (Millex-GV sterilizing filter membrane, 0.22 μm). Cells were then harvested for molecular and biochemical assays. […]

CCCNC(=O)[C@H]1O[C@@H]1C(=O)N[C@H](C(=O)N1CCC[C@H]1C(=O)OC)[C@@H](C)CC [CA074-ME, reference compound]
inhibition of U87MG colony formation in soft agar (efficacy) (U87MG cells): ~70% | inhibition of secreted cathepsin B activity in U87MG CM (cathepsin B): ~40%
